# According to PMC12486440, “Design, synthesis, and in silico studies of new benzofuran–pyrazole hybrids as multi-kinase inhibitors with potential antiproliferative activity” (RSC Advances, 2025):
# Key:
# HL-60(TB) = settings: single dose 10 μM; leukemia
# [1] = test system: NCI 60 cancer cell line panel; assay: NCI 60 full panel summary; settings: single dose 10 μM; mean over the NCI 60 panel
# CCRF-CEM = settings: single dose 10 μM; leukemia
# K-562 = settings: single dose 10 μM; leukemia
# MOLT-4 = settings: single dose 10 μM; leukemia
# RPMI-8226 = settings: single dose 10 μM; leukemia
# SR = settings: single dose 10 μM; leukemia
# HOP-62 = settings: single dose 10 μM; non-small lung carcinoma
# HOP-92 = settings: single dose 10 μM; non-small lung carcinoma
# NCI-H522 = settings: single dose 10 μM; non-small lung carcinoma
# HCT-15 = settings: single dose 10 μM; colon cancer
# SF-539 = settings: single dose 10 μM; CNS cancer
# SNB-19 = settings: single dose 10 μM; CNS cancer
# LOX IMVI = settings: single dose 10 μM; melanoma
# MALME-3M = settings: single dose 10 μM; melanoma
# UACC-62 = settings: single dose 10 μM; melanoma
# SK-OV-3 = settings: single dose 10 μM; ovarian carcinoma
# CAKI-1 = settings: single dose 10 μM; renal carcinoma
# TK-10 = settings: single dose 10 μM; renal carcinoma
# UO-31 = settings: single dose 10 μM; renal carcinoma
# PC-3 = settings: single dose 10 μM; prostate carcinoma
# MCF7 = settings: single dose 10 μM; breast carcinoma
# T-47D = settings: single dose 10 μM; breast carcinoma
# MDA-MB-468 = settings: single dose 10 μM; breast carcinoma
# EKVX = settings: single dose 10 μM; non-small lung carcinoma
# SF-295 = settings: single dose 10 μM; CNS cancer
# SNB-75 = settings: single dose 10 μM; CNS cancer
# UACC-257 = settings: single dose 10 μM; melanoma
# 786–0 = settings: single dose 10 μM; renal carcinoma
# SN12C = settings: single dose 10 μM; renal carcinoma
# BT-549 = settings: single dose 10 μM; breast carcinoma
# NCI-H226 = settings: single dose 10 μM; non-small lung carcinoma
# HT29 = settings: single dose 10 μM; colon cancer
# U251 = settings: single dose 10 μM; CNS cancer
# SK-MEL-5 = settings: single dose 10 μM; melanoma
# OVCAR-5 = settings: single dose 10 μM; ovarian carcinoma
# ACHN = settings: single dose 10 μM; renal carcinoma
compound,measurement,setting,value
"COc1ccc(C2=NN(C(C)=O)C(c3cn(-c4ccccc4)nc3-c3cc4ccccc4o3)C2)cc1 (stereo not shown) [4b, 1-(5-(3-(Benzofuran-2-yl)-1-phenyl-1H-pyrazol-4-yl)-3-(4-methoxyphenyl)-4,5-dihydropyrazol-1-yl)ethanone]",GI%,HL-60(TB),0.51%
same,Mean GI%,[1],−2.13%
same,GI%,CCRF-CEM,10.80%
same,GI%,K-562,5.81%
same,GI%,MOLT-4,7.68%
same,GI%,RPMI-8226,4.36%
same,GI%,SR,12.12%
same,GI%,HOP-62,2.33%
same,GI%,HOP-92,8.59%
same,GI%,NCI-H522,1.65%
same,GI%,HCT-15,0.50%
same,GI%,SF-539,2.46%
same,GI%,SNB-19,2.45%
same,GI%,LOX IMVI,2.30%
same,GI%,MALME-3M,0.92%
same,GI%,UACC-62,5.56%
same,GI%,SK-OV-3,4.82%
same,GI%,CAKI-1,13.20%
same,GI%,TK-10,7.73%
same,GI%,UO-31,17.79%
same,GI%,PC-3,6.35%
same,GI%,MCF7,9.85%
same,GI%,T-47D,2.42%
same,GI%,MDA-MB-468,2.43%
1-(1H-Benzo[d]imidazol-2-yl)-3-(5-(benzofuran-2-yl)-1-phenyl-1H-pyrazol-3-yl)prop-2-en-1-one [2d],GI%,HL-60(TB),8.55%
same,Mean GI%,[1],−0.94%
same,GI%,K-562,4.77%
same,GI%,MOLT-4,3.61%
same,GI%,RPMI-8226,0.67%
same,GI%,SR,14.03%
same,GI%,EKVX,2.15%
same,GI%,HOP-62,0.08%
same,GI%,NCI-H522,0.40%
same,GI%,SF-295,4.39%
same,GI%,SF-539,1.65%
same,GI%,SNB-19,4.33%
same,GI%,SNB-75,20.70%
same,GI%,MALME-3M,0.07%
same,GI%,UACC-257,1.66%
same,GI%,SK-OV-3,4.37%
same,GI%,786–0,0.74%
same,GI%,CAKI-1,10.24%
same,GI%,SN12C,3.48%
same,GI%,TK-10,3.41%
same,GI%,UO-31,7.86%
same,GI%,MCF7,5.90%
same,GI%,BT-549,15.03%
same,GI%,T-47D,7.67%
same,GI%,MDA-MB-468,1.87%
"CC(=O)N1N=C(c2ccccc2)CC1c1cn(-c2ccccc2)nc1-c1cc2ccccc2o1 (stereo not shown) [4a, 1-(5-(3-(Benzofuran-2-yl)-1-phenyl-1H-pyrazol-4-yl)-3-phenyl-4,5-dihydropyrazol-1-yl)ethanone]",GI%,HL-60(TB),2.27%
same,Mean GI%,[1],1.66%
same,GI%,CCRF-CEM,15.54%
same,GI%,K-562,6.90%
same,GI%,MOLT-4,7.01%
same,GI%,RPMI-8226,6.01%
same,GI%,SR,17.00%
same,GI%,EKVX,6.06%
same,GI%,HOP-62,1.18%
same,GI%,HOP-92,16.24%
same,GI%,NCI-H226,0.69%
same,GI%,NCI-H522,2.75%
same,GI%,HCT-15,2.61%
same,GI%,HT29,0.65%
same,GI%,SF-295,5.69%
same,GI%,SF-539,8.41%
same,GI%,SNB-19,5.00%
same,GI%,SNB-75,1.45%
same,GI%,U251,1.60%
same,GI%,LOX IMVI,4.25%
same,GI%,MALME-3M,1.02%
same,GI%,SK-MEL-5,0.15%
same,GI%,UACC-62,8.33%
same,GI%,OVCAR-5,3.55%
same,GI%,SK-OV-3,9.60%
same,GI%,786–0,2.59%
same,GI%,CAKI-1,13.36%
same,GI%,TK-10,11.62%
same,GI%,UO-31,15.50%
same,GI%,PC-3,8.29%
same,GI%,MCF7,11.19%
same,GI%,BT-549,9.06%
same,GI%,T-47D,12.41%
same,GI%,MDA-MB-468,3.32%
3-(5-(Benzofuran-2-yl)-1-phenyl-1H-pyrazol-3-yl)-1-(4-methoxyphenyl)prop-2-en-1-one [2b],GI%,HL-60(TB),10.93%
same,Mean GI%,[1],0.61%
same,GI%,CCRF-CEM,19.37%
same,GI%,K-562,8.35%
same,GI%,MOLT-4,7.84%
same,GI%,RPMI-8226,10.27%
same,GI%,SR,16.61%
same,GI%,EKVX,5.88%
same,GI%,HOP-62,2.25%
same,GI%,HOP-92,18.73%
same,GI%,NCI-H226,0.47%
same,GI%,NCI-H522,0.40%
same,GI%,SF-295,7.09%
same,GI%,SF-539,3.20%
same,GI%,SNB-19,6.26%
same,GI%,LOX IMVI,4.44%
same,GI%,MALME-3M,1.29%
same,GI%,UACC-62,7.77%
same,GI%,OVCAR-5,2.97%
same,GI%,SK-OV-3,4.75%
same,GI%,786–0,1.04%
same,GI%,ACHN,0.20%
same,GI%,CAKI-1,12.51%
same,GI%,TK-10,6.22%
same,GI%,UO-31,14.83%
same,GI%,PC-3,4.83%
same,GI%,MCF7,0.75%
same,GI%,T-47D,83.54%
same,GI%,MDA-MB-468,65.44%
